From EP4813464A2, “PEPTIDE FOR PREVENTING AND TREATING FIBROSIS” (priority 2021, dated 2022)

Tests used:
[1] = type: in vivo, C57BL/6J mice; conditions: bleomycin mice, treatment from day 7, day 0 to day 22; peptides 30 mg/kg subcutaneously three times a week, nintedanib 100 mg/kg orally daily; FIG. 8b
Text: Based on results of measuring the change in body weight from day 0 to day 22, the body weight decreased until day 7 after administration of bleomycin, but increased after treatment with the peptide according to the present invention and nintedanib (FIG. 8b), and weight loss due to toxicity of the peptide according to the present invention and nintedanib was not observed.

[2] = system: animal model in which lung disease was induced with bleomycin; experiment: Bleomycin-induced lung disease model, lung histology; type: in vivo, C57BL/6J mice; conditions: day 22; peptides 30 mg/kg subcutaneously three times a week, nintedanib 100 mg/kg orally daily; peptides compared to NT group and nintedanib group; FIG. 8c
Description: C57BL/6J mice (male, 7 weeks old) were purchased from Charles River. Mice were anesthetized by intraperitoneal administration of a mixture of Imalgene (ketamine, 100 mg/kg)/Rompun (xylazine, 20 mg/kg), and a total of 50 µl of bleomycin sulfate (1.45 mg/kg, MBcell, CA, USA) was injected intratracheally once, and saline was injected intratracheally in the normal group (day 0). On day 7, mice were divided into groups, each consisting of eight. PBS (NT), SEQ ID NO: 1 (30 mg/kg), and SEQ ID NO: 2 (30 mg/kg) were administered subcutaneously three times a week, and nintedanib (Fluorochem Ref = 050741, 100 mg/kg) was administered orally daily. Each of the peptides of SEQ ID NO: 1 and SEQ ID NO: 2 was administered after dissolution in water for injection, and nintedanib was administered after mixing with water containing 0.5% hydroxyethylcellulose (Sigma; lot BCBV5033) and 0.01% Tween 80 (Sigma; lot BCBR6211V). While administering the drug for 21 days, body weight was measured every 2 days, and whether there were other clinical symptoms were checked.
After mice were sacrificed with isoflurane on day 22, lung tissue was excised therefrom and histological analysis was performed. […]
In order to quantify the fibrotic change, the area of the red (fibrotic portion) was quantified in the sample stained with Sirius Red.

Structure (SMILES): COC(=O)c1ccc2c(c1)NC(=O)/C2=C(\Nc1ccc(N(C)C(=O)CN2CCN(C)CC2)cc1)c1ccccc1 [nintedanib]
- change in body weight [1]: increased
- fibrous deposition in the lungs (Sirius Red and hematoxylin/phloxine staining, microscopy) [2]: some therapeutic effect, but a lot of deposited fibrous tissue was still observed
